{"source": "paper PMC7180948", "about": "“New Insights into 4-Anilinoquinazolines as Inhibitors of Cardiac Troponin I–Interacting Kinase (TNNi3K)” (Molecules, 2020)", "test_in_all_cases": "biochemical", "set-up_in_all_cases": "KINOMEscan competition binding panel (Eurofins DiscoverX), single concentration, % inhibition", "conditions_in_all_cases": "read-out: 7 at 1 µM % inhibition", "key": {"MRCKB": {"target": "T1, MRCKB (Homo sapiens, UniProt Q9Y5S2)", "T1 construct": "gene CDC42BPB", "procedure,_shortened": "(§1)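 Compounds were submitted at 1 µM to a KINOMEscan assay covering more than 400 human kinases. The screen served to define the selectivity profile.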"}, "AMPK-alpha2": {"target": "T2, AMPK-alpha2 (Homo sapiens, UniProt P54646)", "T2 construct": "gene PRKAA2", "procedure,_shortened": "as §1"}, "PIK3CA(Q546K)": {"target": "PIK3CA(Q546K) (Homo sapiens, UniProt P42336, Q546K)", "procedure,_shortened": "as §1"}, "NEK5": {"target": "NEK5 (Homo sapiens, UniProt Q6P3R8)", "procedure,_shortened": "as §1"}, "HIPK1": {"target": "HIPK1 (Homo sapiens, UniProt Q86Z02)", "sequence (Q86Z02 whole entry)": "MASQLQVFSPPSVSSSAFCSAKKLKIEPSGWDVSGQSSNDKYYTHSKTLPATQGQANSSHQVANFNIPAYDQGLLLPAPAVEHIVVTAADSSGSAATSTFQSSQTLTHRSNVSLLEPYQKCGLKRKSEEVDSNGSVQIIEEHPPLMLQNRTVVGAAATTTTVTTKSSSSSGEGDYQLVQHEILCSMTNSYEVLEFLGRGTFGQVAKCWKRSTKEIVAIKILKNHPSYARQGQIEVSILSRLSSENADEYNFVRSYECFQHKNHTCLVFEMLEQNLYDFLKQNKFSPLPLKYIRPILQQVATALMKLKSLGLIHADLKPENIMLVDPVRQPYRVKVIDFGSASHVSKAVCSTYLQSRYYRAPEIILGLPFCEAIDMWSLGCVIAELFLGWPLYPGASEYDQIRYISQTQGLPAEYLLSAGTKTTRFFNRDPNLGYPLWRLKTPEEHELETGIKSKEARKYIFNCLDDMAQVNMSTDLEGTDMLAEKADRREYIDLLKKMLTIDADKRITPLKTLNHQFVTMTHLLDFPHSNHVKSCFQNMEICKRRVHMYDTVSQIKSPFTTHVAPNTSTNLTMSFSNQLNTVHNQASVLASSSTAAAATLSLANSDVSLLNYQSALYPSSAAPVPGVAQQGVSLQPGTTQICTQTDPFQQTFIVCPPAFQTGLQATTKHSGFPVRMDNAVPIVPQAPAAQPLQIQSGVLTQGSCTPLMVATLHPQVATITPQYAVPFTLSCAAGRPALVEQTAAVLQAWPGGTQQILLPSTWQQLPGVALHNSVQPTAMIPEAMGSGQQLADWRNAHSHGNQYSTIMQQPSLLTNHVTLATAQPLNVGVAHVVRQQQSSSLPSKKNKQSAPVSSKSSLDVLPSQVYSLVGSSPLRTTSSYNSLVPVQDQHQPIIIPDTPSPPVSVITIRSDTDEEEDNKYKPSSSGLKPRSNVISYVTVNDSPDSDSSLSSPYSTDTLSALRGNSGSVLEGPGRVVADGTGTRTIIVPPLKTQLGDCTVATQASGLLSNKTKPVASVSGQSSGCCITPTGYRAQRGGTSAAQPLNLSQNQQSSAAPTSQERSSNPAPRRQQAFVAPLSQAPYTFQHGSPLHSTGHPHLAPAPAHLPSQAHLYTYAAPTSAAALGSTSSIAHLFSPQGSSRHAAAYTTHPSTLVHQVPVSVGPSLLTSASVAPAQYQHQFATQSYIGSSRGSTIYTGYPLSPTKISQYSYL", "procedure,_shortened": "as §1"}, "MST1": {"target": "T3, MST1 (Homo sapiens, UniProt Q13043)", "T3 construct": "gene STK4", "procedure,_shortened": "as §1"}, "HUNK": {"target": "HUNK (Homo sapiens, UniProt P57058)", "procedure,_shortened": "as §1"}, "DRAK1": {"target": "T4, DRAK1 (Homo sapiens, UniProt Q9UEE5)", "T4 construct": "gene STK17A", "procedure,_shortened": "as §1"}, "MYLK2": {"target": "MYLK2 (Homo sapiens, UniProt Q9H1R3)", "sequence (Q9H1R3 whole entry)": "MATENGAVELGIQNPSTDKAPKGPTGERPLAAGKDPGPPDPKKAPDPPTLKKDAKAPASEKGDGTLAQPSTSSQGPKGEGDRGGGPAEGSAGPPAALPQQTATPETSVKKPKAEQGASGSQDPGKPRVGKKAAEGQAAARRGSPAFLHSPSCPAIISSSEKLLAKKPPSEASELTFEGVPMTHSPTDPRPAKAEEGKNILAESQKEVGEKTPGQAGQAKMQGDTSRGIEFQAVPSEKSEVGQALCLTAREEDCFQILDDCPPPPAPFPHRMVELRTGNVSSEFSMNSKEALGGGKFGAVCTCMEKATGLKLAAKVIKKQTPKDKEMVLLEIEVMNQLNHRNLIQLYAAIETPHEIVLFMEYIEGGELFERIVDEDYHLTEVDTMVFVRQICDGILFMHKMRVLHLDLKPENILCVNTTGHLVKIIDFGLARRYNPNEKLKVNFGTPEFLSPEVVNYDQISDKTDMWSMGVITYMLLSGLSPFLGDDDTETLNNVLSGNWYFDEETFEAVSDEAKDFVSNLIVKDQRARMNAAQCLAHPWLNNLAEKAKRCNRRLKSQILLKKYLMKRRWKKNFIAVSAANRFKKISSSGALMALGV", "procedure,_shortened": "as §1"}, "LZK": {"target": "T5, LZK (Homo sapiens, UniProt O43283)", "T5 construct": "gene MAP3K13", "procedure,_shortened": "as §1"}, "MST4": {"target": "T6, MST4 (Homo sapiens, UniProt Q9P289)", "T6 construct": "gene STK26", "procedure,_shortened": "as §1"}, "CLK1": {"target": "CLK1 (Homo sapiens, UniProt P49759)", "procedure,_shortened": "as §1"}, "DAPK2": {"target": "DAPK2 (Homo sapiens, UniProt Q9UIK4)", "sequence (Q9UIK4 whole entry)": "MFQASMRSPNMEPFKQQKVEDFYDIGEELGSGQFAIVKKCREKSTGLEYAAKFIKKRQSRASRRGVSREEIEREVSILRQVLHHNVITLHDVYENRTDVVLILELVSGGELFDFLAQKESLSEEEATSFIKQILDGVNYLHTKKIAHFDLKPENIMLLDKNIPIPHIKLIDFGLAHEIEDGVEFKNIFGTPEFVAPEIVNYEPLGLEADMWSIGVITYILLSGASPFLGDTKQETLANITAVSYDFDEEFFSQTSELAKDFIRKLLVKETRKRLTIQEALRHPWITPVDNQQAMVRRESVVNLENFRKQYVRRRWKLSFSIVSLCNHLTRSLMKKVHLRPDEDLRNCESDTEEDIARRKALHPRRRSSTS", "procedure,_shortened": "as §1"}, "EPHA5": {"target": "EPHA5 (Homo sapiens, UniProt P54756)", "procedure,_shortened": "as §1"}, "WNK2": {"target": "WNK2 (Homo sapiens, UniProt Q9Y3S1)", "procedure,_shortened": "as §1"}, "AAK1": {"target": "AAK1 (Homo sapiens, UniProt Q2M2I8)", "procedure,_shortened": "as §1"}, "EPHB1": {"target": "EPHB1 (Homo sapiens, UniProt P54762)", "procedure,_shortened": "as §1"}, "TSSK1B": {"target": "TSSK1B (Homo sapiens, UniProt Q9BXA7)", "sequence (Q9BXA7 whole entry)": "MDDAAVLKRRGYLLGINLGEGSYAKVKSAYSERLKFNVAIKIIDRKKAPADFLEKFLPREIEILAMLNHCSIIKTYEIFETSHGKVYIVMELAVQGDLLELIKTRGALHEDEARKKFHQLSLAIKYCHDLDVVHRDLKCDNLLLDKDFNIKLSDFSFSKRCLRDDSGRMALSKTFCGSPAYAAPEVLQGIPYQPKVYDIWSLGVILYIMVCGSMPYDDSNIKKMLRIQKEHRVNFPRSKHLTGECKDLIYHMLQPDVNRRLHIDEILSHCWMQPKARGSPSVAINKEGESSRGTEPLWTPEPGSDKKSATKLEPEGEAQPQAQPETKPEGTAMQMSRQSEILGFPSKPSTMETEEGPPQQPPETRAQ", "procedure,_shortened": "as §1"}, "EPHB2": {"target": "EPHB2 (Homo sapiens, UniProt P29323)", "procedure,_shortened": "as §1"}, "GRK1": {"target": "GRK1 (Homo sapiens, UniProt Q15835)", "sequence (Q15835 whole entry)": "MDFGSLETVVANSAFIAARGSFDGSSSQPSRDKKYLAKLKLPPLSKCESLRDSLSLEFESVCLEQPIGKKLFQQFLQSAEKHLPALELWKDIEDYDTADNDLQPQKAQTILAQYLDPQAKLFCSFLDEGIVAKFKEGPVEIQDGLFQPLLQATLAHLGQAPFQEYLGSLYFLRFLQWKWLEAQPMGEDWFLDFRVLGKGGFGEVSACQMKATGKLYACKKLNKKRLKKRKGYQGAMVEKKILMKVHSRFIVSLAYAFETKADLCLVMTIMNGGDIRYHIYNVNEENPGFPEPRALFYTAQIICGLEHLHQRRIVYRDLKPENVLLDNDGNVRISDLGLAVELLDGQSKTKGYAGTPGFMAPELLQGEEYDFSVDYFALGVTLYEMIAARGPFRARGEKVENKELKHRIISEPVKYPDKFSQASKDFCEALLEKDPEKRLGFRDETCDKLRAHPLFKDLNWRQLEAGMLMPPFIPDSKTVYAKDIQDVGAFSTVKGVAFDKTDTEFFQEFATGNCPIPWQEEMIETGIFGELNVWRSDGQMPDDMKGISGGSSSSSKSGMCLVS", "procedure,_shortened": "as §1"}, "SRPK3": {"target": "SRPK3 (Homo sapiens, UniProt Q9UPE1)", "procedure,_shortened": "as §1"}, "GCN2(Kin.Dom.2,S808G)": {"target": "T7, GCN2(Kin.Dom.2,S808G) (Homo sapiens, UniProt Q9P2K8, S808G)", "T7 construct": "gene EIF2AK4; Kin.Dom.2", "T7 sequence (Q9P2K8 whole entry S808G)": "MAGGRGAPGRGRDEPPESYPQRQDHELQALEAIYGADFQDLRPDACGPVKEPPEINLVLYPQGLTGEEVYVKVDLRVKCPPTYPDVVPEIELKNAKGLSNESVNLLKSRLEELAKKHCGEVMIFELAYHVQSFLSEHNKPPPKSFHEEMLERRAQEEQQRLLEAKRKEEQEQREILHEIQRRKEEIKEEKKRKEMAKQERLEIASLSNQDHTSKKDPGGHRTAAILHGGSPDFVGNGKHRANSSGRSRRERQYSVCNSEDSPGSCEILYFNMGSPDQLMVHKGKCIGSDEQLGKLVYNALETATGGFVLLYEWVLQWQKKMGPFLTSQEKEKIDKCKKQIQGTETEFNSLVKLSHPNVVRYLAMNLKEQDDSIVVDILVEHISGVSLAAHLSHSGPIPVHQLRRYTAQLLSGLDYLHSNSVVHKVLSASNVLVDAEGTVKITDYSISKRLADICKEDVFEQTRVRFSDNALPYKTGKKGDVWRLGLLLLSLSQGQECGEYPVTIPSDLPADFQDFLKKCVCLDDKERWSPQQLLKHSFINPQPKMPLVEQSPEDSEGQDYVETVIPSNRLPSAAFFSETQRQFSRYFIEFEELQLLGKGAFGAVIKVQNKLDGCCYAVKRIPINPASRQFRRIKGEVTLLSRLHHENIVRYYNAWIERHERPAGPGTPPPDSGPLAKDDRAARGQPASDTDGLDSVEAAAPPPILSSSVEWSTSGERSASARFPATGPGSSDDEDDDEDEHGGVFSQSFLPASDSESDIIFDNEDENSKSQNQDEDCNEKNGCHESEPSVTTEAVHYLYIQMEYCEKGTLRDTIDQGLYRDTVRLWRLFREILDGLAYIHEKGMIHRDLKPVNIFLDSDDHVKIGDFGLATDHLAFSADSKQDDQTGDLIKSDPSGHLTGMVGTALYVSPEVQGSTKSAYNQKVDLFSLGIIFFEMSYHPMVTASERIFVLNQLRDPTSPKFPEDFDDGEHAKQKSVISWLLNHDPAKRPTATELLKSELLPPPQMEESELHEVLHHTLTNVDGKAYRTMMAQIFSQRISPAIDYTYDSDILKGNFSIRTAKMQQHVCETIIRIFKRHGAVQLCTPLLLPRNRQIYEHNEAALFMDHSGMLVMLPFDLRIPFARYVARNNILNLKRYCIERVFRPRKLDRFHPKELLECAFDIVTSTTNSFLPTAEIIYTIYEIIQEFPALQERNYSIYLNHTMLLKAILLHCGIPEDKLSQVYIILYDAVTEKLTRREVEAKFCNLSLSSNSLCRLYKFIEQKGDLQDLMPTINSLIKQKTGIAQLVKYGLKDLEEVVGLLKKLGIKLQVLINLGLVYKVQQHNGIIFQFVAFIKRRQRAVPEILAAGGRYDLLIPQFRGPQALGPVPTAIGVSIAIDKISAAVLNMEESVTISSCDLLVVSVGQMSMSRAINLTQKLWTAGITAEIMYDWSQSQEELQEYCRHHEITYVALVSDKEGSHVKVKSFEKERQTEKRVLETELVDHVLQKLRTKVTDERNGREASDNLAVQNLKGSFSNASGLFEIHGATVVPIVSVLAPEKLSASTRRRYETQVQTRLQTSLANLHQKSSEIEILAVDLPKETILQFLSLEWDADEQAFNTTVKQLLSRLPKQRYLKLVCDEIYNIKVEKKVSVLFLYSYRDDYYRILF", "procedure,_shortened": "as §1"}, "PIM2": {"target": "PIM2 (Homo sapiens, UniProt Q9P1W9)", "sequence (Q9P1W9 whole entry)": "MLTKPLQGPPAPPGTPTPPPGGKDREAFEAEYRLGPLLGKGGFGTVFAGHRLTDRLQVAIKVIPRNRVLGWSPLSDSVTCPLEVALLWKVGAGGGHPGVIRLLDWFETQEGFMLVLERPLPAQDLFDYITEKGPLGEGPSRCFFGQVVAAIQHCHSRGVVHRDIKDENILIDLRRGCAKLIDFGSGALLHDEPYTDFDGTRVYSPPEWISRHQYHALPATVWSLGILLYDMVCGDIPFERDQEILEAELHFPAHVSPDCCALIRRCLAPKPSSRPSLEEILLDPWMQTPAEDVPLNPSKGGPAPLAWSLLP", "procedure,_shortened": "as §1"}, "CSNK1A1": {"target": "CSNK1A1 (Homo sapiens, UniProt P48729)", "procedure,_shortened": "as §1"}}}
{"compound": "CNS(=O)(=O)c1ccc(N(C)C)c(Nc2ncnc3cc(OC)c(OC)cc23)c1", "note": "[compound 7, 3-((6,7-dimethoxyquinazolin-4-yl)amino)-4-(dimethylamino)-N-methylbenzenesulfonamide]", "values": [{"measurement": "inhibition at 1 µM", "setting": "MRCKB", "result": 0, "unit": "%"}, {"measurement": "inhibition at 1 µM", "setting": "AMPK-alpha2", "result": 12, "unit": "%"}, {"measurement": "inhibition at 1 µM", "setting": "PIK3CA(Q546K)", "result": 36, "unit": "%"}, {"measurement": "inhibition at 1 µM", "setting": "NEK5", "result": 25, "unit": "%"}, {"measurement": "inhibition at 1 µM", "setting": "HIPK1", "result": 5, "unit": "%"}, {"measurement": "inhibition at 1 µM", "setting": "MST1", "result": 21, "unit": "%"}, {"measurement": "inhibition at 1 µM", "setting": "HUNK", "result": 0, "unit": "%"}, {"measurement": "inhibition at 1 µM", "setting": "DRAK1", "result": 0, "unit": "%"}, {"measurement": "inhibition at 1 µM", "setting": "MYLK2", "result": 0, "unit": "%"}, {"measurement": "inhibition at 1 µM", "setting": "LZK", "result": 23, "unit": "%"}, {"measurement": "inhibition at 1 µM", "setting": "MST4", "result": 21, "unit": "%"}, {"measurement": "inhibition at 1 µM", "setting": "CLK1", "result": 8, "unit": "%"}, {"measurement": "inhibition at 1 µM", "setting": "DAPK2", "result": 0, "unit": "%"}, {"measurement": "inhibition at 1 µM", "setting": "EPHA5", "result": 0, "unit": "%"}, {"measurement": "inhibition at 1 µM", "setting": "WNK2", "result": 0, "unit": "%"}, {"measurement": "inhibition at 1 µM", "setting": "AAK1", "result": 0, "unit": "%"}, {"measurement": "inhibition at 1 µM", "setting": "EPHB1", "result": 0, "unit": "%"}, {"measurement": "inhibition at 1 µM", "setting": "TSSK1B", "result": 0, "unit": "%"}, {"measurement": "inhibition at 1 µM", "setting": "EPHB2", "result": 0, "unit": "%"}, {"measurement": "inhibition at 1 µM", "setting": "GRK1", "result": 0, "unit": "%"}, {"measurement": "inhibition at 1 µM", "setting": "SRPK3", "result": 0, "unit": "%"}, {"measurement": "inhibition at 1 µM", "setting": "GCN2(Kin.Dom.2,S808G)", "result": 7, "unit": "%"}, {"measurement": "inhibition at 1 µM", "setting": "PIM2", "result": 0, "unit": "%"}, {"measurement": "inhibition at 1 µM", "setting": "CSNK1A1", "result": 0, "unit": "%"}]}
